ChEMBL document CHEMBL4130444, “1,4-Naphthoquinones as inhibitors of Itch, a HECT domain-E3 ligase, and tumor growth suppressors in multiple myeloma” (Eur J Med Chem, 2017)
The source made the active and inactive calls. The rule behind the calls is not given here.

Experiments:
HCT-116 = test: Antiproliferative activity against human HCT116 cells incubated for 48 hrs by SRB assay; assay type: functional; settings: HCT-116, 48 h
MDA-MB-231 = test: Antiproliferative activity against human MDA-MB-231 cells incubated for 48 hrs by SRB assay; assay type: functional; settings: MDA-MB-231, 48 h
[1] = Antiproliferative activity against human hepatocytes incubated for 48 hrs by SRB assay; assay type: cell-based, Hepatocyte
[2] = Antiproliferative activity against HUVEC incubated for 48 hrs by SRB assay; assay type: cell-based; settings: human, HUVEC cells
[3] = Antiproliferative activity against NHDF incubated for 48 hrs by SRB assay; assay type: cell-based; settings: human, NHDF cells
ASPC1 = test: Antiproliferative activity against human AsPC1 cells incubated for 48 hrs by SRB assay; assay type: functional; settings: ASPC1, 48 h
BXPC-3 = test: Antiproliferative activity against human BxPC3 cells incubated for 48 hrs by SRB assay; assay type: functional; settings: BXPC-3, 48 h
HT-29 = test: Antiproliferative activity against human HT-29 cells incubated for 48 hrs by SRB assay; assay type: functional; settings: HT-29, 48 h
REH = test: Antiproliferative activity against human REH cells incubated for 48 hrs by SRB assay; assay type: functional
MCF7 = test: Antiproliferative activity against human MCF7 cells incubated for 48 hrs by SRB assay; assay type: functional; settings: MCF7, 48 h
SK-MEL-5 = test: Antiproliferative activity against human SK-MEL-5 cells incubated for 48 hrs by SRB assay; assay type: functional; settings: SK-MEL-5, 48 h
[4] = Antiproliferative activity against human ZR-75 cells incubated for 48 hrs by SRB assay; assay type: functional; settings: ZR75, 48 h
KB = test: Antiproliferative activity against human KB cells incubated for 48 hrs by SRB assay; assay type: functional
Ramos = test: Antiproliferative activity against human Ramos cells incubated for 48 hrs by SRB assay; assay type: functional
[5] = Antiproliferative activity against human 33HJ-JA1 cells incubated for 48 hrs by SRB assay; assay type: functional
A549 = test: Antiproliferative activity against human A549 cells incubated for 48 hrs by SRB assay; assay type: functional; settings: A549, 48 h
NCI-H460 = test: Antiproliferative activity against human NCI-H460 cells incubated for 48 hrs by SRB assay; assay type: functional; settings: NCI-H460, 48 h
PC-6 = test: Antiproliferative activity against human PC6 cells incubated for 48 hrs by SRB assay; assay type: functional; settings: PC-6, 48 h
OVCAR-4 = test: Antiproliferative activity against human OVCAR4 cells incubated for 48 hrs by SRB assay; assay type: functional; settings: OVCAR-4, 48 h
OVCAR-3 = test: Antiproliferative activity against human OVCAR3 cells incubated for 48 hrs by SRB assay; assay type: functional; settings: OVCAR-3, 48 h
PC-3 = test: Antiproliferative activity against human PC3 cells incubated for 48 hrs by SRB assay; assay type: functional; settings: PC-3, 48 h
[6] = molecular target: E3 ubiquitin-protein ligase Itchy homolog (Homo sapiens) (UniProt Q96J02); test: Inhibition of Itch (unknown origin) assessed as reduction in Itch-mediated ubiquitination in presence of E1 enzyme, E2 enzyme and ATP incubated for 20 mins by SDS-PAGE method
Chain of E3 ubiquitin-protein ligase Itchy homolog (Homo sapiens) (Q96J02 whole entry): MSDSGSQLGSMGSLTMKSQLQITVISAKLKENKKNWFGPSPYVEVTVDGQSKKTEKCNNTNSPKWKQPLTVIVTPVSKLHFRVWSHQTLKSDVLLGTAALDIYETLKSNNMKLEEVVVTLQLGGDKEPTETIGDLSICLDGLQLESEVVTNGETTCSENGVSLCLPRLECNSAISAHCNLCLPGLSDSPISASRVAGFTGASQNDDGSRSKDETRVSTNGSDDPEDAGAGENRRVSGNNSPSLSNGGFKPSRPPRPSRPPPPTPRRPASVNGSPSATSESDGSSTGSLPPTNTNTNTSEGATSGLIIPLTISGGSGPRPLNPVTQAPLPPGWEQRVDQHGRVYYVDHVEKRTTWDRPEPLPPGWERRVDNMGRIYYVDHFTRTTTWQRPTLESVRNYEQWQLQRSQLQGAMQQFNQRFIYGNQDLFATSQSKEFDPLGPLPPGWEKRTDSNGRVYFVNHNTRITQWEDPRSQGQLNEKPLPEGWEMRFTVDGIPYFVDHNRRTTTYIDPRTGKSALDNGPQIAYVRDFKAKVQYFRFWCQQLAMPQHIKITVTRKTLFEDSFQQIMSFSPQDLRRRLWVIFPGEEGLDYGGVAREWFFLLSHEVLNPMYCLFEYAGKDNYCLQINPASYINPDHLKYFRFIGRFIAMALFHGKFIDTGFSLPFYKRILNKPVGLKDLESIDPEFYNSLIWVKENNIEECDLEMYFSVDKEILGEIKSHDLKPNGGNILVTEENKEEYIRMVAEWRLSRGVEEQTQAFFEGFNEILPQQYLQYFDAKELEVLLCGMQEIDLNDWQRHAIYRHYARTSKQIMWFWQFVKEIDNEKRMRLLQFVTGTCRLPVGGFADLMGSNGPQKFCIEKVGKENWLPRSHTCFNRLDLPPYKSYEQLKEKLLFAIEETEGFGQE

RPMI-8226 [7] = test: Antiproliferative activity against human RPMI8226 cells incubated for 48 hrs by SRB assay; assay type: functional, cell-based; settings: RPMI-8226, 48 h
RPMI-8226 [8] = test: Reduction of Itch protein expression in human RPMI8226 cells at 10 uM by Western blot; assay type: functional, cell-based
RPMI-8226 [9] = test: Antitumor activity against human RPMI8226 cells xenografted in SCID nude mouse assessed as inhibition of tumor growth at 25 mg/kg, po dosed daily for 45 days; assay type: functional; settings: RPMI-8226, po, 1080 h, read-out: TGI
RPMI-8226 [10] = test: Antitumor activity against human RPMI8226 cells xenografted in SCID nude mouse assessed as inhibition of tumor growth at 50 mg/kg, po dosed daily for 45 days; assay type: functional; settings: RPMI-8226, po, 1080 h, read-out: TGI
Mus musculus [11] = test: Toxicity in human RPMI8226 cells xenografted SCID nude mouse assessed as effect on body weight at 25 mg/kg, po dosed daily for 45 days; assay type: organism-based; settings: in vivo, 1080 h
Mus musculus [12] = test: Toxicity in human RPMI8226 cells xenografted SCID nude mouse assessed as effect on body weight at 50 mg/kg, po dosed daily for 45 days; assay type: organism-based; settings: in vivo, 1080 h
Mus musculus [13] = test: Toxicity in human RPMI8226 cells xenografted SCID nude mouse assessed as induction of adverse events at 25 mg/kg, po dosed daily for 45 days; assay type: organism-based; settings: in vivo, 1080 h
Mus musculus [14] = test: Toxicity in human RPMI8226 cells xenografted SCID nude mouse assessed as induction of adverse events at 50 mg/kg, po dosed daily for 45 days; assay type: organism-based; settings: in vivo, 1080 h
Homo sapiens [15] = organism: Homo sapiens; test: Inhibition of UBE1/UbcH3/SCFSkp2/Cks1/p27 (unknown origin) assessed as protein activity at […] by electrochemiluminescence based ubiquitin profiler panel assay; set-up: scale not given: the % may be the effect or the level left
Homo sapiens [16] = organism: Homo sapiens; test: Inhibition of UBE1/UbcH3/SCFFbw7/Cyclin E1 (unknown origin) assessed as protein activity at […] by electrochemiluminescence based ubiquitin profiler panel assay; set-up: scale not given: the % may be the effect or the level left

With `O=C(Nc1ccncc1)c1ccc(CNC2=C(Cl)C(=O)c3ccccc3C2=O)cc1` the GI50 (HCT-116) was 4.3 µM, the GI50 (MDA-MB-231) was 2900 nM and the GI50 at 48 h [1] was 30 µM. The GI50 at 48 h [2] was 16 µM, the GI50 at 48 h [3] was 6.3 µM and the GI50 (ASPC1) was 4.6 µM. The GI50 (BXPC-3) was 1200 nM, the GI50 (HT-29) was 3.8 µM and the GI50 (REH) was 2800 nM. For the same compound, the GI50 (MCF7) was 900 nM, the GI50 (SK-MEL-5) was 210 nM and the GI50 [4] was > 5 µM. The GI50 (KB) was 4 µM, the GI50 (Ramos) was 890 nM and the GI50 [5] was 1900 nM. The GI50 (A549) was > 5 µM, the GI50 (NCI-H460) was 2900 nM and the GI50 (PC-6) was 1800 nM. For the same compound, the GI50 (OVCAR-4) was 1400 nM, the GI50 (OVCAR-3) was 1900 nM and the GI50 (PC-3) was 2500 nM. For the same compound, the inhibition [6] was “Dose-dependent effect”, the IC50 (RPMI-8226 [7]) was 2600 nM and the Activity (RPMI-8226 [8]) was “Active”. The inhibition in vivo at 25 mg/kg (RPMI-8226 [9]) was 98.3%, the inhibition in vivo at 50 mg/kg (RPMI-8226 [10]) was 100% and the Activity (Mus musculus [11]) was “Non-Toxic”. The Activity (Mus musculus [12]) was “Non-Toxic”, the Activity (Mus musculus [13]) was “Non-Toxic” and the Activity (Mus musculus [14]) was “Non-Toxic”. It also gave an Activity (Homo sapiens [15]) of 85% and an Activity (Homo sapiens [16]) of 104%.
